Data reported in patent US7504513B2, “Thiazolyl-benzimidazoles” (Hoffman-La Roche Inc., priority 2006, dated 2009).

Target: T1, GST-Plk1 (Homo sapiens, UniProt P53350)
T1 construct: Full-length, active GST-Plk1 was purified from Sf9 insect cells; made in house; host or cells: Sf9 insect cells
Assay: Biochemical Characterization Assay: HTRF kinase assay, GST-Plk1 phosphorylation of GST-p53
Details: full-length active GST-Plk1, GST-p53 substrate, ATP, 37° C. for 35 minutes, HTRF signal
Description: Full-length, active GST-Plk1 was purified from Sf9 insect cells, and full-length GST-p53 was purified in E. coli. Anti-phospho p53 antibody was purchased from Cell Signaling Technology. Europium-conjugated anti-rabbit antibody was purchased from PerkinElmer Life and Analytical Sciences. APC-conjugated anti-GST antibody was purchased from Prozyme.
To two microliters of compound (0.6 nM-4 mM) in DMSO or plain DMSO for control wells, 38 microliters of 20 mM HEPES pH 7, 50 mM NaCl, 10 mM MgCl2, 0.5 mM TCEP, 0.1 mM sodium orthovanadate, 0.1 mg/ml BSA, and 0.05% Triton X-100 (Kinase Assay Buffer) were added. Eight microliters of the compound solution were added to a 384-well black microtiter plate, followed by six microliters of GST-p53 (17 ug/ml) and ATP (333 uM) in Kinase Assay Buffer. Six microliters of GST-Plk1 (3 ug/ml) in Kinase Assay Buffer were then added and the solution incubated at 37° C. for 35 minutes. Six microliters of solution containing 43 mM EDTA to stop the reaction and a 1:600 dilution of anti-phospho-p53 antibody in 20 mM HEPES pH 7, 50 mM NaCl, and 0.5 mg/ml BSA (Antibody Binding Buffer) were added and the solution incubated at 37° C. for 30 minutes. Six microliters of solution containing 9 nM europium-conjugated anti-rabbit antibody and 120 nM APC-conjugated anti-GST antibody in Antibody Binding Buffer were then added and the mixture incubated at room temperature for 1.5 hours. The HTRF signal was read on the Envision reader (PerkinElmer Life and Analytical Sciences).

T1 sequence (P53350 whole entry): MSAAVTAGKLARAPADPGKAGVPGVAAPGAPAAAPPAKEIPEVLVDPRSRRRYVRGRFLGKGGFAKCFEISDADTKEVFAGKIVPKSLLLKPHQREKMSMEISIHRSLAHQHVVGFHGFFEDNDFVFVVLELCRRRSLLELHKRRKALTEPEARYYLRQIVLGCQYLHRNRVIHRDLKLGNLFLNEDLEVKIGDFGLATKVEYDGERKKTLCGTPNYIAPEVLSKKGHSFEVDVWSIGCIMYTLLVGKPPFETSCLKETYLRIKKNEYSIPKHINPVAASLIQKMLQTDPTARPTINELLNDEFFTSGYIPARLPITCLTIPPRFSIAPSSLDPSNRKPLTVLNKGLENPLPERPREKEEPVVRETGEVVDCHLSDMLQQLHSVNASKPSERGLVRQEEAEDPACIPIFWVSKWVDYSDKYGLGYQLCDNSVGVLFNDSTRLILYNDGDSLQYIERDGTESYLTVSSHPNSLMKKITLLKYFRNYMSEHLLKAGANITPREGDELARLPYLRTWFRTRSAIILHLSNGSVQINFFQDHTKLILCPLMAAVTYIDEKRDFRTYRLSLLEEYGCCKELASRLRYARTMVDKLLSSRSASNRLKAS

| Compound | IC50 [nM] |
| --- | --- |
| 1-(5-Carboxy-4-phenyl-thiazol-2-yl)-1H-benzoimidazole-4-carboxylic acid and 3-(5-carboxy-4-phenyl-thiazol-2-yl)-3H-benzoimidazole-4-carboxylic acid [Example 8] | 6420 |
| 2-(4-Hydroxy-benzoimidazol-1-yl)-4-phenyl-thiazole-5-carboxylic acid and 2-(7-hydroxy-benzoimidazol-1-yl)-4-phenyl-thiazole-5-carboxylic acid [Example 7] | 7470 |
| 2-(5-Chloro-6-fluoro-benzoimidazol-1-yl)-4-phenyl-thiazole-5-carboxylic acid and 2-(6-chloro-5-fluoro-benzoimidazol-1-yl)-4-phenyl-thiazole-5-carboxylic acid [Example 35] | 1290 |
| 2-(5-Chloro-6-methylbenzoimidazol-1-yl)-4-phenylthiazole-5-carboxylic acid and 2-(6-chloro-5-methylbenzoimidazol-1-yl)-4-phenylthiazole-5-carboxylic acid [Example 16] | 1170 |
| 2-(5-Chlorobenzoimidazol-1-yl)-4-phenylthiazole-5-carboxylic acid and 2-(6-chlorobenzoimidazol-1-yl)-4-phenylthiazole-5-carboxylic acid [Example 14] | 720 |
| 2-(5-Hydroxy-benzoimidazol-1-yl)-4-phe-nyl-thiazole-5-car-boxylic acid; compoundwith 2-(6-hydroxy-benzoimidazol-1-yl)-4-phenyl-thiazole-5-carboxylic acid [Example 65] | 388 |
| 2-(5-Methoxy-6-methylbenzoimidazol-1-yl)-4-phenylthiazole-5-carboxylic acid and 2-(6-methoxy-5-methylbenzoimidazol-1-yl)-4-phenylthiazole-5-carboxylic acid [Example 59] | 826 |
| 2-(5-Methoxy-benzoimidazol-1-yl)-4-phe-nyl-thiazole-5-car-boxylic acid; compoundwith 2-(6-methoxy-benzoimidazol-1-yl)-4-phenyl-thiazole-5-carboxylic acid [Example 15] | 226 |
| 2-(5-Methylbenzoimidazol-1-yl)-4-phenylthiazole-5-carboxylic acid and 2-(6-Methylbenzoimidazol-1-yl)-4-phenylthiazole-5-carboxylic acid [Example 4] | 1550 |
| 2-(8H-5,7-Dioxa-1,3-diaza-cyclopenta[b]naphthalen-3-yl)-4-phenyl-thiazole-5-carboxylic acid and 2-(8H-5,7-Dioxa-1,3-diaza-cyclopenta[b]naphthalen-1-yl)-4-phenyl-thiazole-5-carboxylic acid [Example 9] | 2620 |
| 2-[5-(2-Methoxy-ethoxy)-benzo-imidazol-1-yl]-4-phenyl-thiazole-5-carboxylic acid;compound with 2-[6-(2-meth-oxy-ethoxy)-benzo-imidazol-1-yl]-4-phenyl-thiazole-5-carboxylic acid [Example 63] | 526 |
| COc1cc2ncn(-c3nc(-c4ccccc4)c(C(=O)O)s3)c2cc1OC [Example 1, 2-(5,6-Dimethoxybenzoimidazol-1-yl)-4-phenylthiazole-5-carboxylic acid] | 107 |
| O=C(O)c1sc(-n2cnc3ccccc32)nc1-c1ccccc1 [Example 2, 2-(Benzoimidazol-1-yl)-4-phenylthiazole-5-carboxylic acid] | 772 |
| NC(=O)c1sc(-n2cnc3ccccc32)nc1-c1ccccc1 [Example 3, 2-Benzoimidazol-1-yl-4-phenyl-thiazole-5-carboxylic acid amide] | 7360 |
| Cc1cc2ncn(-c3nc(-c4ccccc4)c(C(=O)O)s3)c2cc1C [Example 5, 2-(5,6-Dimethylbenzoimidazol-1-yl)-4-phenylthiazole-5-carboxylic acid] | 2490 |
| COc1cc2ncn(-c3nc(-c4ccccc4)c(C(N)=O)s3)c2cc1OC [Example 6, 2-(5,6-Dimethoxy-benzoimidazol-1-yl)-4-phenyl-thiazole-5-carboxylic acid amide] | 1380 |
| COc1cc2ncn(-c3nc(-c4ccccc4)c(C(=O)N(C)C)s3)c2cc1OC [Example 10, 2-(5,6-Dimethoxy-benzoimidazol-1-yl)-4-phenyl-thiazole-5-carboxylic acid dimethylamide] | 1380 |
| CCNC(=O)c1sc(-n2cnc3cc(OC)c(OC)cc32)nc1-c1ccccc1 [Example 11, 2-(5,6-Dimethoxy-benzoimidazol-1-yl)-4-phenyl-thiazole-5-carboxylic acid ethylamide] | 916 |

| Compound | IC50 [nM] |
| --- | --- |
| COc1cc2ncn(-c3nc(-c4ccccc4)c(-c4nnn[nH]4)s3)c2cc1OC [Example 12, 5,6-Dimethoxy-1-[4-phenyl-5-(1H-tetrazol-5-yl)-thiazol-2-yl]-1H-benzoimidazole] | 1100 |
| COc1cc2ncn(-c3nc(-c4ccccc4)c(C(=O)NC4CC4)s3)c2cc1OC [Example 13, 2-(5,6-Dimethoxy-benzoimidazol-1-yl)-4-phenyl-thiazole-5-carboxylic acid cyclopropylamide] | 3310 |
| COc1cc2ncn(-c3nc(-c4cccc(F)c4)c(C(=O)O)s3)c2cc1OC [Example 17, 2-(5,6-Dimethoxy-benzoimidazol-1-yl)-4-(3-fluoro-phenyl)-thiazole-5-carboxylic acid] | 69 |
| COc1ccc(-c2nc(-n3cnc4cc(OC)c(OC)cc43)sc2C(=O)O)cc1OC [Example 18, 2-(5,6-Dimethoxy-benzoimidazol-1-yl)-4-(3,4-dimethoxy-phenyl)-thiazole-5-carboxylic acid] | 2390 |
| COc1cc2ncn(-c3nc(-c4ccc(F)c(Cl)c4)c(C(=O)O)s3)c2cc1OC [Example 19, 4-(3-Chloro-4-fluoro-phenyl)-2-(5,6-dimethoxy-benzoimidazol-1-yl)-thiazole-5-carboxylic acid] | 87 |
| COc1cccc(-c2nc(-n3cnc4cc(OC)c(OC)cc43)sc2C(=O)O)c1 [Example 20, 2-(5,6-Dimethoxy-benzoimidazol-1-yl)-4-(3-methoxy-phenyl)-thiazole-5-carboxylic acid] | 127 |
| COc1cc2ncn(-c3nc(-c4ccccc4Cl)c(C(=O)O)s3)c2cc1OC [Example 21, 4-(2-Chloro-phenyl)-2-(5,6-dimethoxy-benzoimidazol-1-yl)-thiazole-5-carboxylic acid] | 3600 |
| COc1cc2ncn(-c3nc(-c4ccc5c(c4)OCO5)c(C(=O)O)s3)c2cc1OC [Example 22, 4-Benzo[1,3]dioxol-5-yl-2-(5,6-dimethoxy-benzoimidazol-1-yl)-thiazole-5-carboxylic acid] | 125 |
| COc1cc2ncn(-c3nc(-c4ccc(Cl)c(Cl)c4)c(C(=O)O)s3)c2cc1OC [Example 23, 4-(3,4-Dichloro-phenyl)-2-(5,6-dimethoxy-benzoimidazol-1-yl)-thiazole-5-carboxylic acid] | 216 |
| COc1cc2ncn(-c3nc(-c4cccc(C(C)C)c4)c(C(=O)O)s3)c2cc1OC [Example 24, 2-(5,6-Dimethoxy-benzoimidazol-1-yl)-4-(3-isopropyl-phenyl)-thiazole-5-carboxylic acid] | 68 |
| COc1cc2ncn(-c3nc(-c4ccsc4)c(C(=O)O)s3)c2cc1OC [Example 25, 2-(5,6-Dimethoxy-benzoimidazol-1-yl)-4-thiophen-3-yl-thiazole-5-carboxylic acid] | 781 |
| COc1cc2ncn(-c3nc(-c4ccc(C)cc4)c(C(=O)O)s3)c2cc1OC [Example 26, 2-(5,6-Dimethoxy-benzoimidazol-1-yl)-4-p-tolyl-thiazole-5-carboxylic acid] | 657 |
| COc1cc2ncn(-c3nc(-c4ccccc4C)c(C(=O)O)s3)c2cc1OC [Example 27, 2-(5,6-Dimethoxy-benzoimidazol-1-yl)-4-o-tolyl-thiazole-5-carboxylic acid] | 1620 |
| COc1ccc(-c2nc(-n3cnc4cc(OC)c(OC)cc43)sc2C(=O)O)cc1 [Example 28, 2-(5,6-Dimethoxy-benzoimidazol-1-yl)-4-(4-methoxy-phenyl)-thiazole-5-carboxylic acid] | 856 |
| COc1cc2ncn(-c3nc(-c4cccc(F)c4F)c(C(=O)O)s3)c2cc1OC [Example 29, 4-(2,3-Difluoro-phenyl)-2-(5,6-dimethoxy-benzoimidazol-1-yl)-thiazole-5-carboxylic acid] | 538 |
| COc1cc2ncn(-c3nc(-c4ccccc4O)c(C(=O)O)s3)c2cc1OC [Example 30, 2-(5,6-Dimethoxy-benzoimidazol-1-yl)-4-(2-hydroxy-phenyl)-thiazole-5-carboxylic acid] | 275 |
| COc1cc2ncn(-c3nc(-c4cccc(Cl)c4)c(C(=O)O)s3)c2cc1OC [Example 31, 4-(3-Chloro-phenyl)-2-(5,6-dimethoxy-benzoimidazol-1-yl)-thiazole-5-carboxylic acid] | 25 |
| COc1cc2ncn(-c3nc(-c4cccc5ccccc45)c(C(=O)O)s3)c2cc1OC [Example 32, 2-(5,6-Dimethoxy-benzoimidazol-1-yl)-4-naphthalen-1-yl-thiazole-5-carboxylic acid] | 3180 |
